Results on 10 molecules are retold here after patent EP1048652A1, “AROMATIC COMPOUNDS HAVING CYCLIC AMINO OR SALTS THEREOF” (MOCHIDA PHARMACEUTICAL CO., LTD., priority 1997, dated 1999).

T1 sequence (P00742 235-488 limits assumed): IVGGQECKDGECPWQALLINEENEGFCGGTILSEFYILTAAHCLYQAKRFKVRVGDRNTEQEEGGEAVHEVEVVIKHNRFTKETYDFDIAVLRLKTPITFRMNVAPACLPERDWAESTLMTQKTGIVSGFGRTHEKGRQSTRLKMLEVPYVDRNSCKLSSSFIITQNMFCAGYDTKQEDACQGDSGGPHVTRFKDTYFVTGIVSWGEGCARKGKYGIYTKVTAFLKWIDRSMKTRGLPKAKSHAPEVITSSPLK
T1 sequence (P00742 41-179 partner limits assumed): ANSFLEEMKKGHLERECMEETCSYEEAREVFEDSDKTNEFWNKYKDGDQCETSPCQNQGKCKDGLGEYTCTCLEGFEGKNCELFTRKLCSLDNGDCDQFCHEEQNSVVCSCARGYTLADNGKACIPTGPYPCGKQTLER

The test system of the first test is rat plasma. The test can be described thus: Measuring extrinsic coagulation time (PT) in vitro in rat plasma. To be noted: 37°C 3 minutes, thromboplastin reagent, concentration required to double the coagulation time. The protocol: The compounds synthesized in the Examples of the present invention had FXa inhibitory activities at least equal to that of the control compound. 2) Measurement of Anticoagulation Activity (in vitro) a) Measuring extrinsic coagulation time Thromboplastin time (PT) is measured in the presence of test compounds diluted at various concentrations. A test compound diluted with DMSO at various concentrations is mixed with rat plasma and incubated at 37°C for 3 minutes. Then, a thromboplastin reagent is added and the coagulation time is measured. The anticoagulation activity of the test compound is indicated in terms of the concentration required to double the coagulation time for the case where no test compound is added. […]
In the case of `CCOC(=O)C1CN(S(=O)(=O)c2ccc3cc(Cl)ccc3c2)CC(=O)N1CC1CCN(c2ccncc2)CC1` (stereo not drawn) [Example 39, 4-(6-chloronaphthalen-2-ylsulfonyl)-6-ethoxycarbonyl-1-[1-(4-pyridyl)piperidin-4-ylmethyl]piperazin-2-one], the “PT Doubling Concentration” value was determined as 2.8 µM. `O=C(O)C1CN(S(=O)(=O)c2ccc3cc(Cl)ccc3c2)CC(=O)N1CC1CCN(c2ccncc2)CC1` (stereo not drawn) [Example 40, 6-carboxy-4-(6-chloronaphthalen-2-ylsulfonyl)-1-[1-(4-pyridyl)piperidin-4-ylmethyl]piperazin-2-one]: the “PT Doubling Concentration” value was found to be 2.7 µM.

A further test concerns the target T1, Human FXa (Homo sapiens, UniProt P00742).
T1 construct: purchased Enzyme Research Laboratories, Inc
The test can be described thus: Measuring human FXa inhibitory action (chromogenic substrate S-2222). Type of test: biochemical. To be noted: Human FXa 0.019 U/ml, S-2222 0.4 mM, Tris-HCl buffer (pH 7.5), 37 °C, absorbance at 405 nm. The protocol: The outstanding FXa inhibitory activity of the compounds of the present invention can be verified by the following tests. 1) Measurement of Enzyme Inhibitory Action a) Measuring human FXa inhibitory action In vitro FXa inhibitory activity is measured in accordance with the method of Kettner et al., J. Biol. Chem., 1990, 265, 18289-18297. Human FXa (Enzyme Research Laboratories, Inc., 0.019 U/ml) is mixed with a test compound diluted with dimethyl sulfoxide (DMSO) at various concentrations and a synthesis substrate S-2222 (Chromogenix AB, 0.4 mM) and incubated in a Tris-HCl buffer (pH 7.5) at 37 °C while the absorbance at 405 nm is measured continuously. To calculate the FXa inhibitory activity of the test cmpound, the initial reaction velocity is compared with the value for a control containing no test compound. The FXa inhibitory activity of a test compound is usually expressed as IC50. The compounds of the present invention were measured for their FXa inhibitory activity by the above-described method and they had potencies between 1 nM and 1µm in terms of IC50. […]
The molecule `O=C(C1CCN(c2ccncc2)CC1)N1CCN(S(=O)(=O)/C=C/c2ccc(Cl)cc2)CC1` [Control, 1-((E)-4-chlorostyrylsulfonyl)-4-[1-(4-pyridyl)piperidin-4-ylcarbonyl]piperazine, reference compound] came in with a concentration for half-maximal inhibition (IC50) of 150 nM. `CCOC(=O)C1CN(S(=O)(=O)c2ccc3cc(Cl)ccc3c2)CC(=O)N1CC1CCN(c2ccncc2)CC1` (stereo not drawn) [Example 39, 4-(6-chloronaphthalen-2-ylsulfonyl)-6-ethoxycarbonyl-1-[1-(4-pyridyl)piperidin-4-ylmethyl]piperazin-2-one]: the IC50 came out at 19 nM.

The molecule `O=C(O)C1CN(S(=O)(=O)c2ccc3cc(Cl)ccc3c2)CC(=O)N1CC1CCN(c2ccncc2)CC1` (stereo not drawn) [Example 40, 6-carboxy-4-(6-chloronaphthalen-2-ylsulfonyl)-1-[1-(4-pyridyl)piperidin-4-ylmethyl]piperazin-2-one] had an IC50 of 7.4 nM. On the same count and under the same terms, next, `NC(=O)C1CN(S(=O)(=O)c2ccc3cc(Cl)ccc3c2)CC(=O)N1CC1CCN(c2ccncc2)CC1` (stereo not drawn) [Example 46]: 17 nM; `O=C1CN(S(=O)(=O)c2ccc3cc(Cl)ccc3c2)CC(C=NO)N1CC1CCN(c2ccncc2)CC1` (stereo not drawn) [Example 47, 6-aldoximyl-4-(6-chloronaphthalen-2-ylsulfonyl)-1-[1-(4-pyridyl)piperidin-4-ylmethyl]piperazin-2-one]: 13 nM; `NCC1CN(S(=O)(=O)c2ccc3cc(Cl)ccc3c2)CC(=O)N1CC1CCN(c2ccncc2)CC1` (stereo not drawn) [Example 52, 6-aminomethyl-4-(6-chloronaphthalen-2-ylsulfonyl)-1-[1-(4-pyridyl)piperidin-4-ylmethyl]piperazin-2-one]: 12 nM. Still for that read-out and setting: the value for `CN(C)CC1CN(S(=O)(=O)c2ccc3cc(Cl)ccc3c2)CC(=O)N1CC1CCN(c2ccncc2)CC1` (stereo not drawn) [Example 54, 4-(6-chloronaphthalen-2-ylsulfonyl)-6-dimethylaminomethyl-1-[1-(4-pyridyl)piperidin-4-ylmethyl]piperazin-2-one] was 8.5 nM.

`CC(=O)NCC1CN(S(=O)(=O)c2ccc3cc(Cl)ccc3c2)CC(=O)N1CC1CCN(c2ccncc2)CC1` (stereo not drawn) [Example 55, 6-acetamidomethyl-4-(6-chloronaphthalen-2-ylsulfonyl)-1-[1-(4-pyridyl)piperidin-4-ylmethyl]piperazin-2-one]: the midpoint of inhibition, the IC50, lay at 7.4 nM. Regarding `CCOC(=O)[C@H]1CN(S(=O)(=O)c2ccc3cc(Cl)ccc3c2)CC(=O)N1CC1CCN(c2ccncc2)CC1` [Example 60, (R)-4-(6-chloronaphthalen-2-ylsulfonyl)-6-ethoxycarbonyl-1-[1-(4-pyridyl)piperidin-4-ylmethyl]piperazin-2-one], the IC50 amounted to 16 nM. `CCOC(=O)[C@@H]1CN(S(=O)(=O)c2ccc3cc(Cl)ccc3c2)CC(=O)N1CC1CCN(c2ccncc2)CC1` [Example 61, (S)-4-(6-chloronaphthalen-2-ylsulfonyl)-6-ethoxycarbonyl-1-[1-(4-pyridyl)piperidin-4-ylmethyl]piperazin-2-one] came in with an IC50 of 70 nM. Compared with the last molecule, the IC50 is about 4.4-fold higher.
